Results from patent EP3262036B1, “THERAPEUTIC PYRIDAZINE COMPOUNDS AND USES THEREOF” (priority 2015, dated 2016).

biological target: BRG1 (Homo sapiens, UniProt P51532); test: biochemical; format: binding; details: BRG1 HTRF IC50 (µM)
Source text: IC50 measurements for inhibitors using BRG1 TR-FRET Binding Assay

Sequence of BRG1 (P51532 1448-1575): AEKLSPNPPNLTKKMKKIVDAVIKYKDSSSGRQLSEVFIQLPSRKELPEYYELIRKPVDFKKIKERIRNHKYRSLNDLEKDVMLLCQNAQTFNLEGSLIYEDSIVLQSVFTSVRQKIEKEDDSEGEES

Compound	IC50
Nc1nnc(-c2ccccc2O)cc1N1CCC2(CC1)C(=O)Nc1ccccc12 [Example 78, 1'-(3-amino-6-(2-hydroxyphenyl)pyridazin-4-yl)spiro[indoline-3,4'-piperidin]-2-one]	0.0758 µM
CNC(=O)CN1C2CCC1CN(c1cc(-c3ccccc3O)nnc1N)C2 [Example 79, 2-(3-(3-amino-6-(2-hydroxyphenyl)pyridazin-4-yl)-3,8-diazabicyclo[3.2.1]octan-8-yl)-N-methylacetamide]	0.139 µM
Nc1nnc(-c2ccccc2O)cc1N1CC2CCC(C1)N2c1ccc(C(=O)O)nc1 [Example 88, 5-(3-(3-amino-6-(2-hydroxyphenyl)pyridazin-4-yl)-3,8-diazabicyclo[3.2.1]octan-8-yl)picolinic acid]	0.218 µM
CN(C)C1CCN(c2cc(-c3ccccc3O)nnc2N)CC1 [Example 91, 2-[6-amino-5-[4-(dimethylamino)-1-piperidyl]pyridazin-3-yl]phenol]	0.0929 µM
CC(C)n1cc(CN2CCN(c3cc(-c4ccccc4O)nnc3N)CC2)cn1 [Example 94, 2-[6-amino-5-[4-[(1-isopropylpyrazol-4-yl)methyl]piperazin-1-yl]pyridazin-3-yl]phenol]	0.122 µM
Nc1nnc(-c2ccccc2O)cc1N1CCN(Cc2ncco2)CC1 [Example 97, 2-[6-amino-5-[4-(oxazol-2-ylmethyl)piperazin-1-yl]pyridazin-3-yl]phenol]	0.0714 µM
Nc1nnc(-c2ccccc2O)cc1N1CCN(Cc2ccncc2)CC1 [Example 98, 2-[6-amino-5-[4-(4-pyridylmethyl)piperazin-1-yl]pyridazin-3-yl]phenol]	0.0796 µM
CC(C)(C)OC(=O)N1CCc2cc(CN3CCN(c4cc(-c5ccccc5O)nnc4N)CC3)ccc21 [Example 106, tert-butyl 5-[[4-[3-amino-6-(2-hydroxyphenyl)pyridazin-4-yl]piperazin-1-yl]methyl]indoline-1-carboxylate]	0.689 µM
Cn1cc(CN2CCN(c3cc(-c4ccccc4O)nnc3N)CC2)cn1 [Example 107, 2-[6-amino-5-[4-[(1-methylpyrazol-4-yl)methyl]piperazin-1-yl]pyridazin-3-yl]phenol]	0.0877 µM
CC(C)(O)C(=O)N1C2CCC1CN(c1cc(-c3ccccc3O)nnc1N)C2 [Example 120, 1-(3-(3-amino-6-(2-hydroxyphenyl)pyridazin-4-yl)-3,8-diazabicyclo[3.2.1]octan-8-yl)-2-hydroxy-2-methylpropan-1-one]	0.0444 µM
CN(C)C(=O)N1C2CCC1CN(c1cc(-c3ccccc3O)nnc1N)C2 [Example 121, 3-(3-amino-6-(2-hydroxyphenyl)pyridazin-4-yl)-N,N-dimethyl-3,8-diazabicyclo[3.2.1]octane-8-carboxamide]	0.0225 µM
Cc1noc(C)c1C(=O)N1CCN(c2cc(-c3ccccc3O)nnc2N)CC1C (stereo not shown) [Example 123, (4-(3-amino-6-(2-hydroxyphenyl)pyridazin-4-yl)-2-methylpiperazin-1-yl)(3,5-dimethylisoxazol-4-yl)methanone]	0.0879 µM
Nc1nnc(-c2ccccc2O)cc1N1CC2CCC(C1)N2C(=O)c1cncs1 [Example 126, (3-(3-amino-6-(2-hydroxyphenyl)pyridazin-4-yl)-3,8-diazabicyclo[3.2.1]octan-8-yl)(thiazol-5-yl)methanone]	0.0203 µM
CC(=O)N1[C@@H](C)CN(c2cc(-c3ccccc3O)nnc2N)C[C@@H]1C [Example 127, 1-((2S,6S)-4-(3-amino-6-(2-hydroxyphenyl)pyridazin-4-yl)-2,6-dimethylpiperazin-1-yl)ethan-1-one]	0.369 µM
CC(=O)N1[C@H](C)CN(c2cc(-c3ccccc3O)nnc2N)C[C@H]1C [Example 128, 1-((2R,6R)-4-(3-amino-6-(2-hydroxyphenyl)pyridazin-4-yl)-2,6-dimethylpiperazin-1-yl)ethan-1-one]	0.505 µM
CC(=O)N1[C@H](C)CN(c2cc(-c3ccccc3O)nnc2N)C[C@@H]1C [Example 139, 1-((2S,6R)-4-(3-amino-6-(2-hydroxyphenyl)pyridazin-4-yl)-2,6-dimethylpiperazin-1-yl)ethan-1-one]	0.106 µM
C[C@H]1CN(c2cc(-c3ccccc3O)nnc2N)CCN1C(=O)[C@@H]1CCCO1 [Example 142, ((S)-4-(3-amino-6-(2-hydroxyphenyl)pyridazin-4-yl)-2-methylpiperazin-1-yl)((S)-tetrahydrofuran-2-yl)methanone]	0.0975 µM

Continued by falling IC50, values first:

IC50	Compound
0.0653 µM	Cc1cc(CN2CCN(c3cc(-c4ccccc4O)nnc3N)CC2)no1 [Example 101, 2-[6-amino-5-[4-[(5-methylisoxazol-3-yl)methyl]piperazin-1-yl]pyridazin-3-yl]phenol]
0.0569 µM	N#Cc1cccc(CN2CCN(c3cc(-c4ccccc4O)nnc3N)CC2)c1 [Example 96, 3-[[4-[3-amino-6-(2-hydroxyphenyl)pyridazin-4-yl]piperazin-1-yl]methyl]benzonitrile]
0.0569 µM	Cc1nc(CN2CCN(c3cc(-c4ccccc4O)nnc3N)CC2)co1 [Example 104, 2-[6-amino-5-[4-[(2-methyloxazol-4-yl)methyl]piperazin-1-yl]pyridazin-3-yl]phenol]
0.0535 µM	COCCS(=O)(=O)N1CCN(c2cc(-c3ccccc3O)nnc2N)C[C@H]1C [Example 117, (R)-2-(6-amino-5-(4-((2-methoxyethyl)sulfonyl)-3-methylpiperazin-1-yl)pyridazin-3-yl)phenol]
0.0475 µM	CC(C)[C@H](N)C(=O)N1CCN(c2cc(-c3ccccc3O)nnc2N)CC1C (stereo partly drawn) [Example 140, (2S)-2-amino-1-(4-(3-amino-6-(2-hydroxyphenyl)pyridazin-4-yl)-2-methylpiperazin-1-yl)-3-methylbutan-1-one]
0.0446 µM	CC1CN(c2cc(-c3ccccc3O)nnc2N)CCN1C(=O)c1cccnc1 (stereo not shown) [Example 135, (4-(3-amino-6-(2-hydroxyphenyl)pyridazin-4-yl)-2-methylpiperazin-1-yl)(pyridin-3-yl)methanone]
0.0444 µM	Cc1cc(CC(=O)N2CCN(c3cc(-c4ccccc4O)nnc3N)CC2C)on1 (stereo not shown) [Example 136, 1-(4-(3-amino-6-(2-hydroxyphenyl)pyridazin-4-yl)-2-methylpiperazin-1-yl)-2-(3-methylisoxazol-5-yl)ethan-1-one]
0.0426 µM	CC1CN(c2cc(-c3ccccc3O)nnc2N)CCN1C(=O)Cc1ccccn1 (stereo not shown) [Example 125, 1-(4-(3-amino-6-(2-hydroxyphenyl)pyridazin-4-yl)-2-methylpiperazin-1-yl)-2-(pyridin-2-yl)ethan-1-one]
0.0349 µM	CC1CN(c2cc(-c3ccccc3O)nnc2N)CCN1C(=O)C(C)(C)O (stereo not shown) [Example 134, 1-(4-(3-amino-6-(2-hydroxyphenyl)pyridazin-4-yl)-2-methylpiperazin-1-yl)-2-hydroxy-2-methylpropan-1-one]
0.033 µM	C[C@@H]1CN(c2cc(-c3ccccc3O)nnc2N)CCN1C(=O)[C@@H]1CCCO1 [Example 141, ((R)-4-(3-amino-6-(2-hydroxyphenyl)pyridazin-4-yl)-2-methylpiperazin-1-yl)((S)-tetrahydrofuran-2-yl)methanone]
0.0324 µM	Cn1ccnc1CN1CCN(c2cc(-c3ccccc3O)nnc2N)CC1 [Example 99, 2-[6-amino-5-[4-[(1-methylimidazol-2-yl)methyl]piperazin-1-yl]pyridazin-3-yl]phenol]
0.0307 µM	CC1(C)CN(c2cc(-c3ccccc3O)nnc2N)CCN1S(C)(=O)=O [Example 112, 2-(6-amino-5-(3,3-dimethyl-4-(methylsulfonyl)piperazin-1-yl)pyridazin-3-yl)phenol]
0.0289 µM	Cn1ncc2c(CN3CCN(c4cc(-c5ccccc5O)nnc4N)CC3)cccc21 [Example 103, 2-[6-amino-5-[4-[(1-methylindazol-4-yl)methyl]piperazin-1-yl]pyridazin-3-yl]phenol]
0.0281 µM	C[C@@H]1CN(c2cc(-c3ccccc3O)nnc2N)CCN1S(=O)(=O)c1nccn1C [Example 118, (R)-2-(6-amino-5-(3-methyl-4-((1-methyl-1H-imidazol-2-yl)sulfonyl)piperazin-1-yl)pyridazin-3-yl)phenol]
0.0279 µM	Cn1ncc2cc(CN3CCN(c4cc(-c5ccccc5O)nnc4N)CC3)ccc21 [Example 105, 2-[6-amino-5-[4-[(1-methylindazol-5-yl)methyl]piperazin-1-yl]pyridazin-3-yl]phenol]
0.0259 µM	Nc1nnc(-c2ccccc2O)cc1N1CCN(Cc2n[nH]c3ccccc23)CC1 [Example 102, 2-[6-amino-5-[4-(1H-indazol-3-ylmethyl)piperazin-1-yl]pyridazin-3-yl]phenol]
0.0258 µM	CC1CN(c2cc(-c3ccccc3O)nnc2N)CCN1C(=O)C1CC1c1ccccc1 (stereo not shown) [Example 124, (4-(3-amino-6-(2-hydroxyphenyl)pyridazin-4-yl)-2-methylpiperazin-1-yl)(2-phenylcyclopropyl)methanone]
0.0238 µM	C[C@@H]1CN(c2cc(-c3ccccc3O)nnc2N)CCN1Cc1nccn1C [Example 93, (R)-2-(6-amino-5-(3-methyl-4-((1-methyl-1H-imidazol-2-yl)methyl)piperazin-1-yl)pyridazin-3-yl)phenol]
0.0219 µM	CCS(=O)(=O)N1CCN(c2cc(-c3ccccc3O)nnc2N)CC1C (stereo not shown) [Example 110, 2-(6-amino-5-(4-(ethylsulfonyl)-3-methylpiperazin-1-yl)pyridazin-3-yl)phenol]
0.0197 µM	CC1CN(c2cc(-c3ccccc3O)nnc2N)CCN1S(=O)(=O)C1CC1 (stereo not shown) [Example 111, 2-(6-amino-5-(4-(cyclopropylsulfonyl)-3-methylpiperazin-1-yl)pyridazin-3-yl)phenol]
0.0185 µM	C[C@H]1CN(c2cc(-c3ccccc3O)nnc2N)CCN1Cc1nccn1C [Example 92, (S)-2-(6-amino-5-(3-methyl-4-((1-methyl-1H-imidazol-2-yl)methyl)piperazin-1-yl)pyridazin-3-yl)phenol]
0.0176 µM	CC1CN(c2cc(-c3ccccc3O)nnc2N)CCN1S(=O)(=O)c1ccccc1 (stereo not shown) [Example 109, 2-(6-amino-5-(3-methyl-4-(phenylsulfonyl)piperazin-1-yl)pyridazin-3-yl)phenol]
0.0126 µM	CC1CN(c2cc(-c3ccccc3O)nnc2N)CCN1C(=O)c1cncs1 (stereo not shown) [Example 138, (4-(3-amino-6-(2-hydroxyphenyl)pyridazin-4-yl)-2-methylpiperazin-1-yl)(thiazol-5-yl)methanone]
